Results taken from PubChem BioAssay (NCI).
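Where inhibition never reached the appropriate level, the endpoint shown equals the highest concentration tested. Otherwise, values were interpolated linearly from a five-concentration, 48-hour dose response in 96-well plates. TGI marks complete inhibition of growth.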 *1 amine or outer side, *2 acyl side, *3 side chain or, on linkers, in order; H or OH if unused. Where a SMILES comes first, the peptide text is derived from it. Bridges are numbered along the chain shown (N, C = ends). Roman numbers before positions name the chains, in order. [ ]: non-standard residue; d: D form. Actinocin(9to1) = Cc1c2oc3c(C)ccc(C(=O)[*:1])c3nc-2c(C(=O)[*:2])c(N)c1=O; X48 = O=C1CC(C(=O)[*:2])N([*:1])C1; NMeV = CN[CH](C(=O)O)C(C)C; Sar = CNCC(=O)O

What was measured:
Assay in all cases: DTP human tumour cell line panel, 48 h
[1] = tested on: M14 melanoma
[2] = tested on: OVCAR-3 ovarian
[3] = tested on: HCT-15 colon
[4] = tested on: HOP-92 NSCLC
[5] = tested on: PC-3 prostate
[6] = tested on: NCI-H522 lung
[7] = tested on: A549 NSCLC
[8] = tested on: UO-31 renal
[9] = tested on: OVCAR-4 ovarian
[10] = tested on: MALME-3M melanoma
[11] = tested on: NCI-H23 lung
[12] = tested on: CAKI-1 renal
[13] = tested on: SF-268 CNS
[14] = tested on: COLO 205 colon
[15] = tested on: SW-620 colon
[16] = tested on: DU-145 prostate
[17] = tested on: T-47D breast
[18] = tested on: SNB-19 CNS
[19] = tested on: TK-10 renal
[20] = tested on: UACC-62 melanoma

Q: For `O=C1CC(CC(O)C(O)C(O)CO)CC(=O)N1` (configuration not stated), which TGI [1] is on record?
A: > 100 µM

Q: And the TGI [2]?
A: > 100 µM

Q: And the TGI [3]?
A: > 100 µM

Q: What about the TGI [4] of the same compound?
A: > 100 µM

Q: What about the TGI [5] of the same compound?
A: > 100 µM

Q: What about the TGI [6] of the same compound?
A: > 100 µM

Q: And the TGI [7]?
A: > 100 µM

Q: What about the TGI [8] of the same compound?
A: > 100 µM

Q: And the TGI [9]?
A: > 100 µM

Q: What about the TGI [10] of the same compound?
A: > 100 µM

Q: And the TGI [11]?
A: > 100 µM

Q: And the TGI [12]?
A: > 100 µM

Q: What about the TGI [13] of the same compound?
A: > 100 µM

Q: What about the TGI [14] of the same compound?
A: > 100 µM

Q: And the TGI [15]?
A: > 100 µM

Q: What about the TGI [16] of the same compound?
A: > 100 µM

Q: And the TGI [17]?
A: > 100 µM

Q: Which TGI [1] does the source give for `COc1ccc(C(=O)N2CCc3c([nH]c4ccccc34)C2C(=O)O)o1` (configuration not stated) here?
A: > 10 µM

Q: And the TGI [2]?
A: > 10 µM

Q: What about the TGI [18] of the same compound?
A: > 10 µM

Q: What about the TGI [3] of the same compound?
A: > 10 µM

Q: And the TGI [4]?
A: > 10 µM

Q: And the TGI [5]?
A: > 10 µM

Q: And the TGI [7]?
A: > 10 µM

Q: What about the TGI [19] of the same compound?
A: > 10 µM

Q: What about the TGI [9] of the same compound?
A: > 10 µM

Q: What about the TGI [10] of the same compound?
A: > 10 µM

Q: And the TGI [12]?
A: > 10 µM

Q: What about the TGI [13] of the same compound?
A: > 10 µM

Q: What about the TGI [14] of the same compound?
A: > 10 µM

Q: And the TGI [15]?
A: > 10 µM

Q: And the TGI [20]?
A: > 10 µM

Q: What about the TGI [16] of the same compound?
A: > 10 µM

Q: And the TGI [17]?
A: > 10 µM

Q: Which TGI [1] does the source give for `Cc1cc2c(c(C=Nc3ccc([N+](=O)[O-])cc3)c1)OC1(C=C2)Oc2ccccc2C(=O)N1C` (configuration not stated) here?
A: 57.8 µM

Q: What about the TGI [2] of the same compound?
A: 60.9 µM

Q: And the TGI [18]?
A: > 100 µM

Q: What about the TGI [3] of the same compound?
A: 39.4 µM

Q: What about the TGI [4] of the same compound?
A: 50.9 µM

Q: What about the TGI [5] of the same compound?
A: 44.4 µM

Q: What about the TGI [6] of the same compound?
A: > 100 µM

Q: What about the TGI [7] of the same compound?
A: > 100 µM

Q: And the TGI [19]?
A: 74.2 µM

Q: And the TGI [8]?
A: 42.3 µM

Q: What about the TGI [9] of the same compound?
A: 64.2 µM

Q: And the TGI [11]?
A: 35.7 µM

Q: What about the TGI [12] of the same compound?
A: 48.4 µM

Q: And the TGI [13]?
A: 51.2 µM

Q: And the TGI [14]?
A: 54.3 µM

Q: And the TGI [15]?
A: 81.1 µM

Q: And the TGI [20]?
A: 34.9 µM

Q: What about the TGI [16] of the same compound?
A: 54.2 µM

Q: And the TGI [17]?
A: 26.9 µM

Q: With `c1ccc(C2C3=C(CCCC3)Nc3nc4cc5ccccc5cc4n32)cc1` (configuration not stated) as the compound, how does the TGI [1] read?
A: > 100 µM

Q: And the TGI [2]?
A: > 100 µM

Q: And the TGI [18]?
A: > 100 µM

Q: What about the TGI [3] of the same compound?
A: > 100 µM

Q: What about the TGI [4] of the same compound?
A: > 100 µM

Q: And the TGI [5]?
A: > 100 µM

Q: What about the TGI [6] of the same compound?
A: > 100 µM

Q: And the TGI [7]?
A: > 100 µM

Q: And the TGI [8]?
A: > 100 µM

Q: And the TGI [9]?
A: > 100 µM

Q: And the TGI [10]?
A: > 100 µM

Q: And the TGI [11]?
A: > 100 µM

Q: And the TGI [12]?
A: > 100 µM

Q: What about the TGI [13] of the same compound?
A: > 100 µM

Q: And the TGI [14]?
A: > 100 µM

Q: And the TGI [15]?
A: > 100 µM

Q: What about the TGI [20] of the same compound?
A: > 100 µM

Q: And the TGI [16]?
A: > 100 µM

Q: What about the TGI [17] of the same compound?
A: > 100 µM

Q: With `CC(=O)Nc1ccc(C(=O)NN2C(=O)C(Cl)C2c2cc(Br)ccc2O)cc1` (configuration not stated) as the compound, how does the TGI [1] read?
A: 45.5 µM

Q: What about the TGI [2] of the same compound?
A: > 100 µM

Q: And the TGI [18]?
A: > 100 µM

Q: What about the TGI [3] of the same compound?
A: > 100 µM

Q: What about the TGI [4] of the same compound?
A: > 100 µM

Q: And the TGI [5]?
A: > 100 µM

Q: And the TGI [6]?
A: > 100 µM

Q: What about the TGI [7] of the same compound?
A: > 100 µM

Q: And the TGI [19]?
A: > 100 µM

Q: And the TGI [8]?
A: 32.3 µM

Q: And the TGI [9]?
A: > 100 µM

Q: What about the TGI [10] of the same compound?
A: > 100 µM

Q: And the TGI [11]?
A: > 100 µM

Q: What about the TGI [13] of the same compound?
A: > 100 µM

Q: And the TGI [14]?
A: > 100 µM

Q: And the TGI [15]?
A: > 100 µM

Q: And the TGI [20]?
A: > 100 µM

Q: And the TGI [16]?
A: > 100 µM

Q: What about the TGI [17] of the same compound?
A: > 100 µM

Q: What does the source list for `Cc1c2oc3c(C)ccc(C(=O)NC4C(=O)NC(C(C)C)C(=O)N5CC(=O)CC5C(=O)N(C)CC(=O)N(C)C(C(C)C)C(=O)OC4C)c3nc-2c(C(=O)NC2C(=O)NC(C(C)C)C(=O)N3CC(=O)CC3C(=O)N(C)CC(=O)N(C)C(C(C)C)C(=O)OC2C)c(N)c1=O` (configuration not stated) (I: TV[X48][Sar][NMeV] / II: TV[X48][Sar][NMeV]; ester I:1-I:C, II:1-II:C; linker I:N-II:N via Actinocin(9to1); configuration not given here)?
A: TGI [1]: > 1 µM; TGI [2]: > 1 µM; TGI [18]: > 1 µM; TGI [3]: > 1 µM; TGI [4]: > 1 µM; TGI [5]: > 1 µM; TGI [7]: > 1 µM; TGI [19]: > 1 µM; TGI [8]: > 1 µM; TGI [9]: > 1 µM; TGI [10]: > 1 µM; TGI [11]: > 1 µM; TGI [12]: > 1 µM; TGI [14]: > 1 µM; TGI [15]: > 1 µM; TGI [16]: > 1 µM; TGI [17]: > 1 µM

Q: For `CCOC(=O)C(NC(=O)c1ccccc1)(Nc1ccc(S(=O)(=O)Nc2nc(C)cc(C)n2)cc1)C(F)(F)F` (configuration not stated), which TGI [1] is on record?
A: > 100 µM

Q: What about the TGI [2] of the same compound?
A: > 100 µM

Q: And the TGI [18]?
A: > 100 µM

Q: And the TGI [3]?
A: > 100 µM

Q: And the TGI [4]?
A: > 100 µM

Q: What about the TGI [5] of the same compound?
A: > 100 µM

Q: What about the TGI [7] of the same compound?
A: > 100 µM

Q: What about the TGI [19] of the same compound?
A: > 100 µM

Q: And the TGI [8]?
A: > 100 µM

Q: What about the TGI [9] of the same compound?
A: > 100 µM

Q: What about the TGI [10] of the same compound?
A: > 100 µM

Q: And the TGI [11]?
A: > 100 µM

Q: What about the TGI [12] of the same compound?
A: > 100 µM

Q: And the TGI [13]?
A: > 100 µM

Q: What about the TGI [14] of the same compound?
A: > 100 µM

Q: And the TGI [15]?
A: > 100 µM

Q: What about the TGI [20] of the same compound?
A: > 100 µM

Q: What about the TGI [16] of the same compound?
A: > 100 µM

Q: What about the TGI [17] of the same compound?
A: > 100 µM

Q: Which results are given for `CC(=O)OCC1OC(n2c(C)c(N=Nc3ccccc3)c(C)c(C#N)c2=S)C(OC(C)=O)C(OC(C)=O)C1OC(C)=O` (configuration not stated)?
A: TGI [1]: > 100 µM; TGI [2]: > 100 µM; TGI [18]: > 100 µM; TGI [4]: 28 µM; TGI [5]: > 100 µM; TGI [7]: > 100 µM; TGI [19]: 81.8 µM; TGI [8]: > 100 µM; TGI [9]: > 100 µM; TGI [10]: > 100 µM; TGI [11]: > 100 µM; TGI [12]: > 100 µM; TGI [13]: > 100 µM; TGI [14]: > 100 µM; TGI [15]: > 100 µM; TGI [20]: 33.3 µM; TGI [16]: > 100 µM; TGI [17]: > 100 µM

Q: How did the TGI [1] turn out when `CSC(=NCCCCN=C(NS(=O)(=O)c1ccc(Cl)cc1)SC)NS(=O)(=O)c1ccc(Cl)cc1` was run?
A: > 100 µM

Q: What about the TGI [2] of the same compound?
A: > 100 µM

Q: What about the TGI [18] of the same compound?
A: > 100 µM

Q: And the TGI [3]?
A: > 100 µM

Q: And the TGI [4]?
A: > 100 µM

Q: And the TGI [5]?
A: > 100 µM

Q: And the TGI [19]?
A: > 100 µM

Q: And the TGI [8]?
A: > 100 µM

Q: And the TGI [9]?
A: > 100 µM

Q: What about the TGI [10] of the same compound?
A: > 100 µM

Q: What about the TGI [12] of the same compound?
A: > 100 µM

Q: What about the TGI [13] of the same compound?
A: > 100 µM

Q: And the TGI [14]?
A: > 100 µM

Q: And the TGI [15]?
A: > 100 µM

Q: What about the TGI [20] of the same compound?
A: > 100 µM

Q: And the TGI [16]?
A: > 100 µM

Q: What about the TGI [17] of the same compound?
A: > 100 µM
